Assay results reported in patent US20020019365A1, “Pharmaceutical compositions of 2'-deoxy-2'-(fluoromethylene)cytidine” (priority 2000, published 2002).

Legend:
[1] = oral administration of FMdC in a conventional tablet form, systemic uptake / bioavailability; assay type: in vivo; details: mammalian patient
Procedure: Notwithstanding these teachings in the art, a problem has been encountered when the compound is administered in an oral form.

[2] = pH-rate profile for the degradation of FMdC (pH-stability profile, FIG. 1); assay type: physicochemical

In the case of `Nc1ccn(C2OC(CO)[C@@H](O)/C2=C\F)c(=O)n1` (stereo partly shown) [FMdC, 2′-deoxy-2′-(fluoromethylene)cytidine], the “patient-to-patient variability of systemic uptake” value [1] is reported as “high”, the “systemic uptake of the drug (oral bioavailability)” value [1] is reported as “less than desirable” and the “pH at which FMdC is most stable” value ([2]; Britton-Robinson buffer (pH 2 to pH 11) and 0.1N HCl (pH 1) at 60° C.) is reported as ~9 pH. The “stability at a pH of about 2 or less” value ([2]; pH of about 2 or less, 60° C.) was “very unstable”.
